The supplement of paper PMC11061612

How the values were obtained:
Assay in all cases: combination Emax (second highest fraction inhibited in the dose matrix, 72 h); higher = more inhibition; extreme values may be limits of the assay
[1] = test system: BICR22 (Oral Cavity Carcinoma)
How it was run: (§1)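 Cell lines in DMEM/F12 or RPMI with 10% FBS were plated in 1536-well plates, held 24 hours at 37°C, 5% CO2, then given two-drug dose matrices for 72 hours (DMSO typically 0.2%). Viability was read by CellTiter-Glo 2.0 luminescence and scaled as inhibition from 0 (vehicle wells) to 1 (blank wells). Combination Emax is the second-highest inhibition in the matrix; Bliss excess is observed combination effect minus expected EA + EB − EA·EB, EA and EB being single-agent effects.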

[2] = test system: PANC-10-05 (Pancreatic Carcinoma)
How it was run: as §1

[3] = test system: NCI-H1693 (Lung Adenocarcinoma)
How it was run: as §1

[4] = test system: SK-MES-1 (Squamous Cell Lung Carcinoma)
How it was run: as §1

ARH-77 (Non-Cancerous) = test system: ARH-77 (Non-Cancerous)
How it was run: as §1

U-2-OS (Osteosarcoma) = test system: U-2-OS (Osteosarcoma)
How it was run: as §1

[5] = test system: NCI-H2141 (Small Cell Lung Carcinoma)
How it was run: as §1

[6] = test system: COLO-320-HSR (Colorectal Carcinoma)
How it was run: as §1

[7] = test system: SISO (Cervical Carcinoma)
How it was run: as §1

LN-405 (Glioblastoma) = test system: LN-405 (Glioblastoma)
How it was run: as §1

IGR-37 (Melanoma) = test system: IGR-37 (Melanoma)
How it was run: as §1

NY (Osteosarcoma) = test system: NY (Osteosarcoma)
How it was run: as §1

Hs-445 (Non-Cancerous) = test system: Hs-445 (Non-Cancerous)
How it was run: as §1

[8] = test system: COR-L311 (Small Cell Lung Carcinoma)
How it was run: as §1

A498 (Kidney Carcinoma) = test system: A498 (Kidney Carcinoma)
How it was run: as §1

[9] = test system: ECC10 (Gastric Carcinoma)
How it was run: as §1

[10] = test system: NCI-H1666 (Lung Adenocarcinoma)
How it was run: as §1

CAS-1 (Glioblastoma) = test system: CAS-1 (Glioblastoma)
How it was run: as §1

[11] = test system: OS-RC-2 (Kidney Carcinoma)
How it was run: as §1

[12] = test system: SK-MG-1 (Low Grade Glioma)
How it was run: as §1

Structure (SMILES)	combination Emax [1]	combination Emax [2]	combination Emax [3]	combination Emax [4]	combination Emax (ARH-77 (Non-Cancerous))	combination Emax (U-2-OS (Osteosarcoma))	combination Emax [5]	combination Emax [6]	combination Emax [7]	combination Emax (LN-405 (Glioblastoma))	combination Emax (IGR-37 (Melanoma))	combination Emax (NY (Osteosarcoma))	combination Emax (Hs-445 (Non-Cancerous))	combination Emax [8]	combination Emax (A498 (Kidney Carcinoma))	combination Emax [9]	combination Emax [10]	combination Emax (CAS-1 (Glioblastoma))	combination Emax [11]	combination Emax [12]
Cc1nc(Nc2ncc(C(=O)Nc3c(C)cccc3Cl)s2)cc(N2CCN(CCO)CC2)n1 [Dasatinib] + CC(=O)Nc1cccc(-n2c(=O)n(C3CC3)c(=O)c3c(Nc4ccc(I)cc4F)n(C)c(=O)c(C)c32)c1 [Trametinib] (first compound max 2 µM, 7x7, partner max 1 µM)	0.615	0.877	0.699	0.941	0.635	0.9	0.129	0.15	0.157	0.468	0.838	0.738	0.517	0.0652	0.503	0.856	0.651	0.946	0.353	0.65
COc1cccc2c1C(=O)c1c(O)c3c(c(O)c1C2=O)C[C@@](O)(C(=O)CO)C[C@@H]3O[C@H]1C[C@H](N)[C@H](O)[C@H](C)O1 [Doxorubicin] + Cc1cc2ncnn2cc1Nc1ncc2c(n1)n(C1CCOCC1)c(=O)n2C [AZD7648] (first compound max 1 µM, 7x7, partner max 10 µM)	0.945	0.715	0.405	0.686	0.972	0.55	0.475	0.464	0.909	0.335	0.777	0.581	0.94	0.87	0.598	1	0.825	0.775	0.348	0.802
COc1cc2ncnc(Nc3ccc(F)c(Cl)c3)c2cc1OCCCN1CCOCC1 [Gefitinib] + CC(C)n1c(=O)n(C)c2cnc3cc(F)c(-c4ccc(OCCCN5CCCCC5)nc4)cc3c21 [AZD1390] (first compound max 10 µM, 7x7, partner max 0.3 µM)	0.272	0.202	0.419	0.408	0.272	0.0294	0.0717	0.19	0.0311	0.104	0.252	0.239	0.369	0.0812	0.298	0.12	0.484	0.134	0.145	0.072
CS(=O)(=O)CCNCc1ccc(-c2ccc3ncnc(Nc4ccc(OCc5cccc(F)c5)c(Cl)c4)c3c2)o1 [Lapatinib] + C[C@@H](Oc1cc(-c2cnn(C3CCNCC3)c2)cnc1N)c1c(Cl)ccc(F)c1Cl [Crizotinib] (first compound max 10 µM, 7x7, partner max 10 µM)	0.933	0.675	0.883	0.966	0.942	0.486	0.795	0.894	0.626	0.493	0.906	0.341	0.783	0.924	0.926	0.97	0.833	0.962	0.584	0.9
CC(=O)c1c(C)c2cnc(Nc3ccc(N4CCNCC4)cn3)nc2n(C2CCCC2)c1=O [Palbociclib] + CC1(C)CCC(CN2CCN(c3ccc(C(=O)NS(=O)(=O)c4ccc(NCC5CCOCC5)c([N+](=O)[O-])c4)c(Oc4cnc5[nH]ccc5c4)c3)CC2)=C(c2ccc(Cl)cc2)C1 [Venetoclax] (first compound max 10 µM, 7x7, partner max 1 µM)	0.209	0.275	0.33	0.208	0.725	0.142	0.196	0.15	0.0637	0.17	0.215	0.0868	0.746	0.632	0.318	0.915	0.177	0.274	0.155	0.282
CC(=O)c1c(C)c2cnc(Nc3ccc(N4CCNCC4)cn3)nc2n(C2CCCC2)c1=O [Palbociclib] + Cc1c2c(nn1C)CSCc1cc(n(C)n1)CSc1cc(c3ccccc3c1)OCCCc1c(C(=O)O)n(C)c3c-2c(Cl)ccc13 [AZD5991] (first compound max 10 µM, 7x7, partner max 1 µM)	0.176	0.329	0.431	0.266	0.556	0.274	0.309	0.965	0.127	0.208	0.325	0.534	0.337	0.534	0.406	0.911	0.236	0.32	0.232	0.3
CC(=O)c1c(C)c2cnc(Nc3ccc(N4CCNCC4)cn3)nc2n(C2CCCC2)c1=O [Palbociclib] + Cn1cnc2c(F)c(Nc3ccc(Br)cc3Cl)c(C(=O)NOCCO)cc21 [Selumetinib] (first compound max 10 µM, 7x7, partner max 10 µM)	0.477	0.521	0.38	0.645	0.61	0.601	0.139	0.177	0.17	0.103	0.872	0.194	0.262	0.231	0.372	0.539	0.49	0.289	0.235	0.344
COc1cccc(OCCCN)c1-c1cc(Nc2cnc(C#N)cn2)n[nH]1 [Prexasertib] + C=CCn1c(=O)c2cnc(Nc3ccc(N4CCN(C)CC4)cc3)nc2n1-c1cccc(C(C)(C)O)n1 [AZD1775] (first compound max 1 µM, partner max 1 µM)	0.813	0.595	0.461	0.777	0.996	0.934	0.588	0.86	0.891	0.587	0.879	0.663	0.947	0.861	0.598	0.904	0.431	0.696	0.519	0.908
COc1cccc(OCCCN)c1-c1cc(Nc2cnc(C#N)cn2)n[nH]1 [Prexasertib] + CCc1c2c(nc3ccc(O)cc13)-c1cc3c(c(=O)n1C2)COC(=O)[C@]3(O)CC [SN-38] (first compound max 1 µM, 7x7, partner max 0.3 µM)	0.936	0.829	0.925	0.953	1	0.871	0.881	0.838	0.972	0.669	0.942	0.935	1	1	0.733	1	0.643	0.834	0.431	0.982
COc1cccc(OCCCN)c1-c1cc(Nc2cnc(C#N)cn2)n[nH]1 [Prexasertib] + CN(C)CCCOc1ccc(-c2ccc3ncc4c(c3c2)n(C2CCOCC2)c(=O)n4C)cn1 [AZD0156] (first compound max 1 µM, 7x7, partner max 1 µM)	0.742	0.4	0.398	0.77	1	0.943	0.568	0.691	0.745	0.516	0.912	0.62	0.97	0.77	0.725	0.671	0.35	0.674	0.498	0.843
COc1cccc(OCCCN)c1-c1cc(Nc2cnc(C#N)cn2)n[nH]1 [Prexasertib] + C[C@@H]1COCCN1C2=NC(=NC(=C2)C3(CC3)[S@](=N)(=O)C)C4=C5C=CNC5=NC=C4 [AZD6738] (first compound max 1 µM, 7x7, partner max 10 µM)	0.789	0.46	0.389	0.842	1	0.894	0.573	0.726	0.798	0.553	0.896	0.637	0.951	0.771	0.692	0.712	0.463	0.652	0.483	0.802
COc1cccc(OCCCN)c1-c1cc(Nc2cnc(C#N)cn2)n[nH]1 [Prexasertib] + Cc1cc2ncnn2cc1Nc1ncc2c(n1)n(C1CCOCC1)c(=O)n2C [AZD7648] (first compound max 1 µM, 7x7, partner max 10 µM)	0.761	0.522	0.483	0.804	0.994	0.913	0.57	0.669	0.759	0.445	0.923	0.674	0.954	0.789	0.642	0.671	0.334	0.71	0.469	0.826
COc1cccc(OCCCN)c1-c1cc(Nc2cnc(C#N)cn2)n[nH]1 [Prexasertib] + O=C(c1cc(Cc2n[nH]c(=O)c3ccccc23)ccc1F)N1CCN(C(=O)C2CC2)CC1 [Olaparib] (first compound max 1 µM, 7x7, partner max 10 µM)	0.78	0.31	0.357	0.834	0.969	0.908	0.617	0.522	0.803	0.592	0.961	0.652	0.949	0.803	0.591	0.728	0.26	0.588	0.475	0.904
